From the supplement of paper PMC10307832

Assays:
Assay in all cases: relative viability (nuclei count vs DMSO), 5 days (fraction); higher = more cells survive
[1] = compound: COc1ccc(-c2ccc3c(N4CCOC[C@@H]4C)nc(N4CCOC[C@@H]4C)nc3n2)cc1CO [AZD8055] + Cc1nc(NC(=O)N2CCC[C@H]2C(N)=O)sc1-c1ccnc(C(C)(C)C(F)(F)F)c1 [Alpelisib] (partner 2 µM)
Outline: (§1)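 Dosing by pin tool came one day after lung cancer cell lines were seeded in 1536-well plates, using either one drug or a fixed anchor-drug dose plus five library-drug doses (not always all listed) in √10 steps. After 5 days, nuclei were counted on 4× images. Relative viability is treated-well nuclei count divided by vehicle-well nuclei count, and values are medians of duplicate plates.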

[2] = compound: COc1ccc(-c2ccc3c(N4CCOC[C@@H]4C)nc(N4CCOC[C@@H]4C)nc3n2)cc1CO [AZD8055] + C[C@]1(O)C[C@@H](c2nc(-c3ccc4ccc(-c5ccccc5)nc4c3)c3c(N)nccn32)C1 [Linsitinib] (partner 1 µM)
Outline: as §1

[3] = compound: COc1ccc(-c2ccc3c(N4CCOC[C@@H]4C)nc(N4CCOC[C@@H]4C)nc3n2)cc1CO [AZD8055] + Nc1ncn([C@H]2C[C@H](O)[C@@H](CO)O2)c(=O)n1 [Decitabine] (partner 2 µM)
Outline: as §1

[4] = compound: COc1ccc(-c2ccc3c(N4CCOC[C@@H]4C)nc(N4CCOC[C@@H]4C)nc3n2)cc1CO [AZD8055] + CS(=O)(=O)N1CCN(Cc2cc3nc(-c4cccc5[nH]ncc45)nc(N4CCOCC4)c3s2)CC1 [Pictilisib] (partner 1 µM)
Outline: as §1

Cell Line	relative viability ([1]; first compound 0.01 µM)	relative viability ([1]; first compound 0.03162 µM)	relative viability ([1]; first compound 0.1 µM)	relative viability ([1]; first compound 0.3162 µM)	relative viability ([1]; first compound 1 µM)	relative viability ([2]; first compound 0.01 µM)	relative viability ([2]; first compound 0.03162 µM)	relative viability ([2]; first compound 0.1 µM)	relative viability ([2]; first compound 0.3162 µM)	relative viability ([2]; first compound 1 µM)	relative viability ([3]; first compound 0.01 µM)	relative viability ([3]; first compound 0.03162 µM)	relative viability ([3]; first compound 0.1 µM)	relative viability ([3]; first compound 0.3162 µM)	relative viability ([3]; first compound 1 µM)	relative viability ([4]; first compound 0.01 µM)	relative viability ([4]; first compound 0.03162 µM)	relative viability ([4]; first compound 0.1 µM)	relative viability ([4]; first compound 0.3162 µM)	relative viability ([4]; first compound 1 µM)
SK-MES-1	0.856	0.64	0.542	0.303	0.269	1.06	0.932	0.743	0.447	0.313	0.395	0.34	0.333	0.269	0.246	0.311	0.355	0.299	0.181	0.236
NCI-H1792	0.447	0.482	0.361	0.131	0.108	0.292	0.233	0.223	0.128	0.101	0.585	0.38	0.338	0.093	0.124	0.235	0.229	0.142	0.112	0.094
NCI-H1355	0.677	0.472	0.332	0.215	0.222	0.684	0.543	0.354	0.234	0.214	0.395	0.335	0.321	0.248	0.231	0.419	0.374	0.269	0.251	0.238
SW 1573	0.707	0.51	0.55	0.301	0.211	0.725	0.584	0.484	0.267	0.153	0.496	0.316	0.38	0.195	0.189	0.504	0.438	0.38	0.205	0.181
A549	0.524	0.373	0.223	0.0986	0.109	0.552	0.382	0.246	0.11	0.0862	0.389	0.101	0.184	0.13	0.101	0.395	0.345	0.189	0.123	0.105
NCI-H2347	1.19	0.934	0.674	0.467	0.413	0.875	0.805	0.746	0.51	0.436	0.625	0.533	0.533	0.495	0.374	0.65	0.601	0.357	0.322	0.428
LCLC-97TM1	0.233	0.179	0.135	0.14	0.135	0.182	0.143	0.13	0.122	0.139	0.239	0.184	0.17	0.133	0.147	0.172	0.107	0.106	0.108	0.176
EMC-BAC-2	0.706	0.663	0.469	0.281	0.297	0.784	0.65	0.53	0.337	0.3	1.02	0.875	0.817	0.498	0.505	0.511	0.494	0.475	0.279	0.286
NCI-H1975	0.454	0.365	0.259	0.249	0.231	0.897	0.581	0.469	0.265	0.219	0.458	0.371	0.312	0.238	0.237	0.257	0.209	0.183	0.179	0.176
BEN	1.06	0.593	0.391	0.341	0.338	0.955	0.574	0.41	0.325	0.279	0.691	0.63	0.435	0.49	0.453	0.541	0.391	0.34	0.316	0.254
NCI-H23	0.668	0.604	0.406	0.268	0.269	0.521	0.484	0.294	0.244	0.259	0.252	0.287	0.262	0.225	0.262	0.472	0.314	0.314	0.251	0.293
NCI-H520	0.912	0.659	0.4	0.187	0.18	0.954	0.504	0.198	0.153	0.164	0.486	0.242	0.229	0.176	0.165	0.301	0.19	0.202	0.163	0.159
EPLC-272H	0.927	0.754	0.546	0.445	0.404	1.1	0.926	0.669	0.404	0.373	0.41	0.265	0.272	0.248	0.226	0.339	0.307	0.23	0.261	0.212
LCLC-103H	0.956	0.88	0.774	0.538	0.422	1	0.929	0.723	0.467	0.481	0.767	0.616	0.532	0.417	0.374	0.612	0.572	0.546	0.52	0.332
NCI-H2405	0.757	0.655	0.442	0.293	0.291	0.802	0.621	0.477	0.333	0.331	0.79	0.715	0.593	0.363	0.339	0.503	0.398	0.316	0.182	0.223
HCC-15	0.86	0.769	0.639	0.366	0.282	0.778	0.808	0.644	0.467	0.29	0.667	0.587	0.597	0.319	0.255	0.806	0.685	0.631	0.369	0.338
